Patent publication US20200397691A1, “NICOTINE MOUTH SPRAY” (Fertin Pharma A/S, priority 2017, published 2020)

Details: nicotine concentration increased from 100 microgram/mL to 14,000 microgram/mL

## CN1CCCC1c1cccnc1 (stereo not shown) [nicotine]
  Decrease of permeability of nicotine across the buccal mucosa (factor): two
